The assay has as its target USP14 (Homo sapiens, UniProt P54578). Put plainly: USP14 inhibition assay. Type of assay: biochemical. From the text: The IC50 values in the Table below represent the average value from three experimental determinations.
These IC50 values represent the average value from three experimental determinations.

Where [1] appears, read: average value from three experimental determinations, reported as potency bands, read-out: IC50 (USP14 inhibition).
Setting [2] is: average value from three experimental determinations, read-out: USP14 IC50.

Where two headings read alike, the source gives them in different places. Where only a bound is given, the exact number is not on record here.

Sequence of USP14 (P54578 whole entry): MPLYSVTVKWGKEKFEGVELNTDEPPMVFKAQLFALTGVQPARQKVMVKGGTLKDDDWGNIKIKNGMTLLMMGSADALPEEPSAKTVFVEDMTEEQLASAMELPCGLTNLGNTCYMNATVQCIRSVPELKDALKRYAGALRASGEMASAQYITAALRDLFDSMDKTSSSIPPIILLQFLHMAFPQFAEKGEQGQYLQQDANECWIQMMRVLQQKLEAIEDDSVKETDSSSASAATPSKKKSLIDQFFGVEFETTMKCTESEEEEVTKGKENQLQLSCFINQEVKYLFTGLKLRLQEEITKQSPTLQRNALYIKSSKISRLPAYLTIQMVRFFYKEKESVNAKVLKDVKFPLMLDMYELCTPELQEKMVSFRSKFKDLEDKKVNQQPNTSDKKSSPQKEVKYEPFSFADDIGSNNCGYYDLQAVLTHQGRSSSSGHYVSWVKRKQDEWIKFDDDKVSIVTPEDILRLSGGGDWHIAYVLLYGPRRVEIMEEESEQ
Sequence of USP14 (Q13200 whole entry partner): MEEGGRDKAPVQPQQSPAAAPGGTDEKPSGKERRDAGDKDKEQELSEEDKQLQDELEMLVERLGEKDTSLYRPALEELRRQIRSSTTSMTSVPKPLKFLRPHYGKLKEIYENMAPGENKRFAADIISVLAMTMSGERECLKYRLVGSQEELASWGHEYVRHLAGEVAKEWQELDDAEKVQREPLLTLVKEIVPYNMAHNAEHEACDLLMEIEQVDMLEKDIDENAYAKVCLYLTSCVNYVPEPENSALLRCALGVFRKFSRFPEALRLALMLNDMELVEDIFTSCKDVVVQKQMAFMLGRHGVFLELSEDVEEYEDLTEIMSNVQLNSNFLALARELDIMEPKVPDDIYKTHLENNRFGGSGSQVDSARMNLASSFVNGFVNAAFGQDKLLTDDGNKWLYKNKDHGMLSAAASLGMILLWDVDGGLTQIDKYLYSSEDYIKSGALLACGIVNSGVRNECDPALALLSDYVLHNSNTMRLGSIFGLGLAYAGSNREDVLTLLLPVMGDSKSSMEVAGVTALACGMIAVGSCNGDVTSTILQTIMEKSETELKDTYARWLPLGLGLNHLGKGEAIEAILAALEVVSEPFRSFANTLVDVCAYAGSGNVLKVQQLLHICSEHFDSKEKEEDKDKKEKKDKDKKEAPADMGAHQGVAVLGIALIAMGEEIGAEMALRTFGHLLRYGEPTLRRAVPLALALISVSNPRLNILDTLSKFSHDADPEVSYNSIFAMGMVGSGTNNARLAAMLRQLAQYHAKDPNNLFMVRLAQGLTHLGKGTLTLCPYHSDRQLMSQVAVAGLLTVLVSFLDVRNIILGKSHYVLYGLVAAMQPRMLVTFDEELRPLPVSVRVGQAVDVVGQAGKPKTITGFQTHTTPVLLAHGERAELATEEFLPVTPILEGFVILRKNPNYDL
Sequence of USP14 (P35998 whole entry partner): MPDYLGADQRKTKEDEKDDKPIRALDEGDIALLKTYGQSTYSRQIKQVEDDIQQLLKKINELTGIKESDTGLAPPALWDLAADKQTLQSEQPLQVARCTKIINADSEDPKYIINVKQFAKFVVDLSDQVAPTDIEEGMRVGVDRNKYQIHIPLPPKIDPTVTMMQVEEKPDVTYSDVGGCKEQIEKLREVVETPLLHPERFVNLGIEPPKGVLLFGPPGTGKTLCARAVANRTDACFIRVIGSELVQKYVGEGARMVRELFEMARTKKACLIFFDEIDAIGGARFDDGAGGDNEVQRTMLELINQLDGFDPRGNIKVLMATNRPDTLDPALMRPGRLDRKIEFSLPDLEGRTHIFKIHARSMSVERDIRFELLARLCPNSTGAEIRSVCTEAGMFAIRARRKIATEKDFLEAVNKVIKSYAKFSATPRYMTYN

Broadly, the IC50 is the concentration that inhibits the measured activity by half. Turning to `CN(c1nc(CC(=O)NCCc2ccccn2)nc2sc3c(c12)CCCC3)C1CC1` [Compound 17], under setting [1], the IC50 lay within 1 to 5 µM.

On to `CN(c1nc(CCC(=O)O)nc2sc3c(c12)CCCC3)C1CC1` [Compound 47, 3-[4-(Cyclopropyl-methyl-amino)-5,6,7,8-tetrahydro-[1]benzothiopheno[2,3-d]pyrimidin-2-yl]-propionic acid], for which the IC50 under setting [1] lay within 1 to 5 µM.

On to `CN(C)C(=O)Cc1nc(N(C)C)c2c3c(sc2n1)CCCC3` [Compound 43, 2-(4-Dimethylamino-5,6,7,8-tetrahydro-benzo[4,5]thieno[2,3-d]pyrimidin-2-yl)-N,N-dimethyl-acetamide], for which, under setting [1], the IC50 fell in the range of 1 to 5 µM. `COCc1nc(N(C)C2CC2)c2c3c(sc2n1)CCCC3` [Compound 4, Cyclopropyl-(2-methoxymethyl-5,6,7,8-tetrahydro-benzo[4,5]thieno[2,3-d]pyrimidin-4-yl)-methyl-amine]: the IC50 under setting [2] is 7.5 µM. In the case of `CN(c1nc(CC(=O)N2CCCCC2)nc2sc3c(c12)CCCC3)C1CC1` [Compound 26, 2-[4-(Cyclopropyl-methyl-amino)-5,6,7,8-tetrahydro-benzo[4,5]thieno[2,3-d]pyrimidin-2yl]-1-piperidin-1-yl-ethanone], the IC50 under setting [1] is 1 to 5 µM. On to `CN(C)C(=O)Cc1nc(N(C)C2CC2)c2c3c(sc2n1)CCCC3` [Compound 3, 2-(4-(Cyclopropyl(methyl)amino)-5,6,7,8-tetrahydrobenzo[4,5]thieno[2,3-d]pyrimidin-2-yl)-N,N-dimethylacetamide], for which the IC50 under setting [2] amounted to 0.5 µM. In the case of `CN(c1nc(CC(=O)N2CCCC2)nc2sc3c(c12)CCCC3)C1CC1` [Compound 6, 2-[4-(Cyclopropyl-methyl-amino)-5,6,7,8-tetrahydro-benzo[4,5]thieno[2,3-d]pyrimidin-2-yl]-1-pyrrolidin-1-yl-ethanone], the IC50 under setting [1] was < 1 µM. On the same count and under the same terms, to `CN(c1nc(CC(=O)N2CC(O)C2)nc2sc3c(c12)CCCC3)C1CC1` [Compound 12, 2-(4-(Cyclopropyl(methyl)amino)-5,6,7,8-tetrahydrobenzo[4,5]thieno[2,3-d]pyrimidin-2-yl)-1-(3-hydroxyazetidin-1-yl)ethanone] belongs < 1 µM. Turning to `CN(c1nc(CC(=O)N2CCC(=O)CC2)nc2sc3c(c12)CCCC3)C1CC1` [Compound 14, 1-{2-[4-(Cyclopropyl-methyl-amino)-5,6,7,8-tetrahydro-benzo[4,5]thieno[2,3-d]pyrimidin-2-yl]-acetyl}-piperidin-4-one], the IC50 is < 1 µM.

`CCOC(=O)Cc1nc(N(C)C(C)C)c2c3c(sc2n1)CCCC3` [Compound 41, [4-(Isopropyl-methyl-amino)-5,6,7,8-tetrahydro-benzo[4,5]thieno[2,3-d]pyrimidin-2-yl]-acetic acid ethyl ester]: the IC50 under setting [1] was > 5 µM. Still for that read-out and setting: to `CC(=O)N1CCN(C(=O)Cc2nc(N(C)C3CC3)c3c4c(sc3n2)CCCC4)CC1` [Compound 13, 1-(4-Acetyl-piperazin-1-yl)-2-[4-(Cyclopropyl-methyl-amino)-5,6,7,8-tetrahydro-[1]benzothieno[2,3-d]pyrimidin-2-yl]-ethanone] belongs < 1 µM; to `CN(c1nc(CC(=O)N2CC[C@H](C(C)(C)O)C2)nc2sc3c(c12)CCCC3)C1CC1` [Compound 20, (S)-2-(4-(Cyclopropyl(methyl)amino)-5,6,7,8-tetrahydrobenzo[4,5]thieno[2,3-d]pyrimidin-2-yl)-1-(3-(2-hydroxypropan-2-yl)pyrrolidin-1-yl)ethanone], < 1 µM. The same measure, in the same setting: to `CN(c1nc(CC(=O)N2CC[C@@H](C(C)(C)O)C2)nc2sc3c(c12)CCCC3)C1CC1` [Compound 37, 2-[4-(Cyclopropyl-methyl-amino)-5,6,7,8-tetrahydro-benzo[4,5]thieno[2,3-d]pyrimidin-2-yl]-1-[(R)-3-(1-hydroxy-1-methyl-ethyl)-pyrrolidin-1-yl]-ethanone] belongs < 1 µM; to `CN(C)C(=O)Cc1nc(N2CCC2)c2c3c(sc2n1)CCCC3` [Compound 44, 2-(4-(Azetidin-1-yl)-5,6,7,8-tetrahydrobenzo[4,5]thieno[2,3-d]pyrimidin-2-yl)-N,N-dimethylacetamide], > 5 µM; to `CN(c1nc(CC(=O)N2CCC(N3CCOCC3)CC2)nc2sc3c(c12)CCCC3)C1CC1` [Compound 32, 2-[4-(Cyclopropyl-methyl-amino)-5,6,7,8-tetrahydro-benzo[4,5]thieno[2,3-d]pyrimidin-2-yl]-1-(4-morpholin-4-yl-piperidin-1-yl)-ethanone], < 1 µM. Same read-out and setting: to `CN(c1nc(CC(=O)O)nc2sc3c(c12)CCCCC3)C1CC1` [Compound 52, [4-(Cyclopropyl-methyl-amino)-6,7,8,9-tetrahydro-5H-10-thia-1,3-diazabenz[a]azulen-2-yl]-acetic acid] belongs > 5 µM; to `CN(c1nc(CC(=O)N2CCOCC2)nc2sc3c(c12)CCCC3)C1CC1` [Compound 9, 2-[4-(Cyclopropyl-methyl-amino)-5,6,7,8-tetrahydro-benzo[4,5]thieno[2,3-d]pyrimidin-2-yl]-1-morpholin-4-yl-ethanone], < 1 µM; to `CN1CCN(C(=O)Cc2nc(N(C)C3CC3)c3c4c(sc3n2)CCCC4)CC1` [Compound 10, 2-[4-(Cyclopropyl-methyl-amino)-5,6,7,8-tetrahydro-benzo[4,5]thieno[2,3-d]pyrimidin-2-yl]-1-(4-methyl-piperazin-1-yl)-ethanone], < 1 µM. Regarding `CN(c1nc(CC(=O)NCc2ccccn2)nc2sc3c(c12)CCCC3)C1CC1` [Compound 18], the IC50 under setting [1] was in the range of 1 to 5 µM. For `CN(c1nc(CC(=O)O)nc2sc3c(c12)CCCC3)C1CC1` [Compound 2, 2-(4-(Cyclopropyl(methyl)amino)-5,6,7,8-tetrahydrobenzo[4,5]thieno[2,3-d]pyrimidin-2-yl)acetic acid], under setting [2], the IC50 came to 1.6 µM. Regarding `CN(c1nc(COc2cccnc2)nc2sc3c(c12)CCCC3)C1CC1` [Compound 50, Cyclopropyl-methyl-[2-(pyridine-3-yloxymethyl)-5,6,7,8-tetrahydro-benzo[4,5]thieno[2,3-d]pyrimidin-4-yl]-amine], the IC50 under setting [1] was > 5 µM. On to `CN(c1nc(CC(=O)N2CCCC2CO)nc2sc3c(c12)CCCC3)C1CC1` (stereo not shown) [Compound 39, 2-[4-(Cyclopropyl-methyl-amino)-5,6,7,8-tetrahydro-benzo[4,5]thieno[2,3-d]pyrimidin-2-yl]-1-(2-hydroxymethyl-pyrrolidin-1-yl)-ethanone], for which the IC50 under setting [1] was < 1 µM. Same read-out and setting: to `CN(C)C1CCN(C(=O)Cc2nc(N(C)C3CC3)c3c4c(sc3n2)CCCC4)C1` (stereo not shown) [Compound 8, 2-[4-(Cyclopropyl-methyl-amino)-5,6,7,8-tetrahydro-benzo[4,5]thieno[2,3-d]pyrimidin-2-yl]-1-(3-dimethylamino-pyrrolidin-1-yl)-ethanone] belongs < 1 µM; to `CN(c1nc(CC(N)=O)nc2sc3c(c12)CCCC3)C1CC1` [Compound 5, 2-(4-(Cyclopropyl(methyl)amino)-5,6,7,8-tetrahydrobenzo[4,5]thieno[2,3-d]pyrimidin-2-yl)acetamide], < 1 µM. `CCN(C)c1nc(CC(=O)O)nc2sc3c(c12)CCCC3` [Compound 45, [4-(Ethyl-methyl-amino)-5,6,7,8-tetrahydro-benzo[4,5]thieno[2,3-d]pyrimidin-2-yl]-acetic acid]: under setting [1], the IC50 was > 5 µM.

The record behind these values is US9399647B2, “Proteasome activity modulating compounds” (Proteostasis Therapeutics, Inc., priority 2012, dated 2016).
